Test results from US8463552B1, “Methods for medicinal dosage determination and diagnosis” (priority 2005, dated 2013).

Experiments:
[1] = system: brain volumes of interest (BOLD signal); test: BOLD-sensitive fMRI of anesthetized monkey during i.v. infusion of SKF82958; type: in vivo, M. fascicularis; settings: 0.1 mg/kg total i.v. infusion from 10 to 15 min; one VOI in one subject; 1.5% isoflurane; FIG. 12
From the text: To determine how the noise levels in the simulation data just described correspond to realistic biological data, we acquired data using BOLD-sensitive fMRI imaging of an anesthetized monkey with administration of the dopamine agonist SKF82958. Experiments were approved in advance by the Washington University Animal Studies Committee and due care was exercised to prevent discomfort to the animal. During imaging sessions the animal's health was monitored by veterinary staff from the Washington University Division of Comparative Medicine. Two male M. fascicularis monkeys were studied. Imaging was done while the animals were ventilated with 1.5% isoflurane in oxygen. We obtained repeated whole-brain BOLD-sensitive fMRI images at a repetition interval of one every 3 seconds over a 40-minute period. At 10 minutes into the imaging session a steady-rate, slow intravenous infusion of the dopamine D1 agonist. SKF82958 was commenced finishing at 15 minutes, with a total administered dose of 0.1 mg/kg. […] Volumes of interest (VOIs) were traced on structural brain images acquired at the same session. These included left and right caudate, left and right putamen, striatum collectively, whole brain, and a midbrain region. Time-activity curves from each VOI were extracted and submitted to the computer method described above. […]

[2] = system: whole-brain and regional blood flow; settings: total administered dose 0.1 mg/kg; cited from earlier work

In the case of `C=CCN1CCc2c(cc(O)c(O)c2Cl)C(c2ccccc2)C1` (stereo not shown) [SKF82958], the “Emax (magnitude of BOLD response in VOI time-activity curve)” value [1] is given as “at least 20”, the “effect on whole-brain mean quantitative blood flow” value [2] is given as “does not affect” and the “effects on regional blood flow consistent with local neuronal activation” value [2] is given as “produces reliable effects”. For the same compound, the safety of dose [2] was “safe”.
